Experimental data as given in patent US20130197085A1, “AGENT AND METHOD FOR STABILIZING MEMBRANE PROTEIN” (priority 2007, published 2013).

Legend:
wild-type BSEP [1] = target: T1, wild-type BSEP (Homo sapiens, UniProt O95342, L339V); assay: Transcellular transport assay of [^3H] TC across MDCKII monolayer; assay type: cell-based; settings: other carboxylic acids, 1 mM, 24 hours; FIG. 10
T1 construct: expressed in transfected cells; host or cells: MDCKII cells infected with recombinant adenovirus
Protocol: MDCKII cells were dispersed on a Transwell membrane insert (pore size: […]; Falcon) of a 24-well plate, resulting in a density of 1.5×10^5 cells/insert. Two days after the culture, the confluent cells were infected with recombinant adenoviruses having the cDNAs of wild-type, E297G and D482G BSEPs, and GFP, at 50 MOI. […] After completion of the treatment for 24 hours, a transcellular transport assay was carried out (see Mita et al., Am J Physiol Gastrointest Liver Physiol 290: G550-G556, 2006).
The apparent efflux clearance across the apical membrane (PSapical) was calculated by dividing a steady rate of the transcellular transport of [^3H] TC for 2 hours by the intracellular concentration of the [^3H] TC at the termination of the experiment (2 hours later).

wild-type BSEP [2] = target: T1, wild-type BSEP; assay: Cell surface biotinylation method, expression on the surface of MDCKII cells; assay type: cell-based; settings: 1 mM, 24 hours, FIG. 9 cell surface fraction
Protocol: MDCKII cells were dispersed on a 6-well plate, resulting in a density of 2.5×10^5 cells/well. After completion of the culture for 24 hours, the confluent cells were infected with recombinant adenoviruses having the cDNAs of wild-type, E297G and D482G BSEPs, and GFP, at 200 MOI. After completion of the infection, the cells were cultured for 24 hours. […] After completion of the treatment for 24 hours, the cells were biotinylated (see Hayashi et al., Hepatology, 41: 916-924, 2005).

T1 sequence (O95342 whole entry L339V): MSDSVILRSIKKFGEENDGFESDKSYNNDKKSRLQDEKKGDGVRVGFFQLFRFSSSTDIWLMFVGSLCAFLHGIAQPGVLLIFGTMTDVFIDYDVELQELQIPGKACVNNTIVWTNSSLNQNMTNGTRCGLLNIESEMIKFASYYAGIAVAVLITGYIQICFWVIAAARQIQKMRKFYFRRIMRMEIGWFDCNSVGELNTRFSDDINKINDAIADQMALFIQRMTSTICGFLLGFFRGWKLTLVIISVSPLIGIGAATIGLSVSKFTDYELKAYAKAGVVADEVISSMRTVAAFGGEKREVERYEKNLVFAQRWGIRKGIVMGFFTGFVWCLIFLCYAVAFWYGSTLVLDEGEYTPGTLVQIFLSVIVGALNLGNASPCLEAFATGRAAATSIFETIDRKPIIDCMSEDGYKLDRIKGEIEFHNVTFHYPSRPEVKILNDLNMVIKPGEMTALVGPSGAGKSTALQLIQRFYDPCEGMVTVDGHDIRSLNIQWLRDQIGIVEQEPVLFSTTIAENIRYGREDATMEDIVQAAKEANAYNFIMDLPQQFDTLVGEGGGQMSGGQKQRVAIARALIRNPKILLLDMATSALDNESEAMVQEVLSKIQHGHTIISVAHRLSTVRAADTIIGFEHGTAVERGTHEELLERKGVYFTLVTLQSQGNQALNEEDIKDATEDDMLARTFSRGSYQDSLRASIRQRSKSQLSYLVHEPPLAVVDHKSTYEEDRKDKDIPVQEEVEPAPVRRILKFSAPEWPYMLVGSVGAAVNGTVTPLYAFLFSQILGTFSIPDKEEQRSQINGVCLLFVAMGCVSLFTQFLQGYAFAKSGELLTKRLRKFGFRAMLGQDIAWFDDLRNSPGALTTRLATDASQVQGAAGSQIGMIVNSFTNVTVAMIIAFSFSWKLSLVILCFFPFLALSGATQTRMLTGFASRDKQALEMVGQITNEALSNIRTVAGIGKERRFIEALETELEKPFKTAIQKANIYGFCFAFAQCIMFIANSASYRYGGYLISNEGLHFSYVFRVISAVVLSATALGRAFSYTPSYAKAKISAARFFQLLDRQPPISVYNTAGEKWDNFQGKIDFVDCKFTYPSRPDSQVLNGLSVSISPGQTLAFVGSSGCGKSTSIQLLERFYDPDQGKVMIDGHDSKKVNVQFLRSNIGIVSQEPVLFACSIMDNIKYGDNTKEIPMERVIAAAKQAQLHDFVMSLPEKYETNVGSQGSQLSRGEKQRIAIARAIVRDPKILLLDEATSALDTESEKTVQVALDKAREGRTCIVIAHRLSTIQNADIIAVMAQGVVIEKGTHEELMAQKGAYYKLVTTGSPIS

| SMILES | efflux of [^3H] TC from the base side to the apical side (in words) (wild-type BSEP [1]) | expression level of wild-type BSEP (wild-type BSEP [2]) |
| --- | --- | --- |
| CCC(=O)O [propionic acid] | increased |  |
| CCCCCCCCCC(=O)O [decanoic acid] | increased |  |
| CCCC(=O)O [butanoic acid] | increased |  |
| CCCCCCCC(=O)O [octanoic acid] |  | an increase in the expression level was observed |
